Columns and labels:
Assay type in all cases: cell-based
hepatitis B virus = assay: Hepatitis B virus replication in HepAD38 cells (genome equivalents in intracellular virions, core antigen immunoblots, viral RNA PCR); conditions: HepAD38 cells without tetracycline 10 days, 250 nM or 500 nM added on day 8 for 48 h or day 9 for 24 h
Protocol: (§1) FIGS. 7A-D show enhanced expression of the Suz12 repressed genes and proliferation genes in the presence of hepatitis B virus replication. […] HepAD38 cells were grown with (+) or without (−) tetracycline for 10 days, i.e. without (−) or with (+) hepatitis B virus replication, respectively. Hepatitis B virus genome equivalents were quantified by real-time PCR of DNA isolated from purified intracellular virions as described (Wang et al., Hepatology, 53:1137-47, 2011). (Left panel) Effect of DMSO addition (5.0 μl) on hepatitis B virus replication. (Right panel) 250 nM or 500 nM BI 2536 dissolved in DMSO (5.0 μl) added on day 8 for 48 h or day 9 for 24 h, as indicated, prior to cell harvesting. Results represent the average of three independent experiments. Error bars indicate+/−standard 1 error of the mean. […] Relative intensity of indicated protein levels was quantified by ImageJ software vs. actin. […] Quantification is relative to GAPDH used as internal control. […]
(§2) Whole cell extract isolated without (−) or with (+) 1 addition of BI 2536 were immunoblotted for hepatitis B virus core antigen, caspase 3 and cleaved/active caspase. […] Expression of viral RNA was quantified by real-time PCR employing primer pairs described by Zhang et al. (Hepatology 53:1476-1485, 2011). […] Quantification of indicated proteins is by ImageJ software vs. actin. […]

HepAD38 cells = assay: Apoptosis in HBV-replicating HepAD38 cells by immunoblot of pro-caspase-3 and caspase-3; conditions: 250 nM or 500 nM added on day 8 for 48 h or day 9 for 24 h
Text: Whole cell extract isolated without (−) or with (+) 1 addition of BI 2536 were immunoblotted for hepatitis B virus core antigen, caspase 3 and cleaved/active caspase. […] Expression of viral RNA was quantified by real-time PCR employing primer pairs described by Zhang et al. (Hepatology 53:1476-1485, 2011). Results are the average from two independent WCE preparations. Error bars indicate+/−standard error of the mean. […] Quantification of indicated proteins is by ImageJ software vs. actin. Results are the average from two independent WCE preparations. Error bars indicate+/−standard error of the mean.
(§3) Employing the HepAD38 cell line that supports hepatitis B virus replication following tetracycline removal (Ladner et al., Antimicrobial Agents and Chemotherapy, 41:1715-1720, 1997), viral replication as well as expression of the Suz12-repressed and proliferation cluster genes were quantified 10 days after induction of hepatitis B virus replication (FIG. 7). Also, the effect of Plk1 inhibition on viral replication and expression of the proliferation cluster and Suz12 target genes was investigated. […] Under these conditions of Plk1 inhibition, expression of the proliferation cluster and Suz12-repressed genes on day 10 of hepatitis B virus replication was quantified (FIG. 7C and D). Expression of both gene clusters increased in the presence of hepatitis B virus replication (FIG. 7C and D).

Suz12 and Znf198 = assay: Immunoblots of Suz12 and Znf198 protein levels in HepAD38 cell lysates; conditions: HepAD38 cells, day 10 of HBV replication; 500 nM for 24 h; vs. actin
Protocol: as §1, §2

[1] = test system: proliferation gene cluster and Suz12 repressed genes; assay: Real-time PCR of proliferation gene cluster and Suz12 repressed genes in HepAD38 cells; conditions: day 10 of HBV replication, 500 nM for 24 h, relative to GAPDH
Protocol: FIGS. 7A-D show enhanced expression of the Suz12 repressed genes and proliferation genes in the presence of hepatitis B virus replication. […] HepAD38 cells were grown with (+) or without (−) tetracycline for 10 days, i.e. without (−) or with (+) hepatitis B virus replication, respectively. Hepatitis B virus genome equivalents were quantified by real-time PCR of DNA isolated from purified intracellular virions as described (Wang et al., Hepatology, 53:1137-47, 2011). (Left panel) Effect of DMSO addition (5.0 μl) on hepatitis B virus replication. (Right panel) 250 nM or 500 nM BI 2536 dissolved in DMSO (5.0 μl) added on day 8 for 48 h or day 9 for 24 h, as indicated, prior to cell harvesting. Results represent the average of three independent experiments. Error bars indicate+/−standard 1 error of the mean. […] Relative intensity of indicated protein levels was quantified by ImageJ software vs. actin. A representative experiment is shown from three independent experiments. […] Quantification is relative to GAPDH used as internal control. Results are from three independent RNA isolations. PCR assays were performed in triplicates. Error bars indicate+/−standard error of the mean.
cDNA was synthesized from 2.0 μg total RNA using iSCRIPT cDNA synthesis kit (Bio-Rad). Real-time PCR reactions were performed in triplicates and normalized to GAPDH.
as §3, with “Expression of both gene clusters increased in the presence of hepatitis B virus replication (FIG. 7C and D).” left out

CC[C@@H]1C(=O)N(C)c2cnc(Nc3ccc(C(=O)NC4CCN(C)CC4)cc3OC)nc2N1C1CCCC1 [BI 2536]
hepatitis B virus replication (genome equivalents in purified intracellular virions, core antigen immunoblots, viral RNA PCR) (hepatitis B virus): suppressed hepatitis B virus replication
hepatitis B virus replication (genome equivalents in purified intracellular virions, core antigen immunoblots, viral RNA PCR) (hepatitis B virus; listed as BI2536): significantly reduced
apoptosis (levels of pro-caspase-3 and caspase-3) (HepAD38 cells): did not induce apoptosis
protein level of Suz12 (Suz12 and Znf198): increased
protein level of Znf198 (Suz12 and Znf198): increased
expression of the Suz12 repressed genes DKK2, EpCAM and IGFII [1]: significantly decreased
expression of the proliferation genes [1]: significantly reduced
expression of the Suz12 repressed genes DKK2, EpCAM and IGFII ([1]; listed as BI2536): significantly reduced

Reference: US20140256735A1, “METHOD FOR ASSESSING A LIVER OF A PATIENT HAVING A CHRONIC HEPATITIS B VIRUS INFECTION” (PURDUE RESEARCH FOUNDATION, priority 2011, published 2014)
